# In the supplement of paper PMC10307832:
# Legend:
# Experiment in all cases: relative viability (nuclei count vs DMSO), 5 days (fraction); higher = more cells survive
# Ibrutinib + Palbociclib = compound: C=CC(=O)N1CCC[C@@H](n2nc(-c3ccc(Oc4ccccc4)cc3)c3c(N)ncnc32)C1 [Ibrutinib] + CC(=O)c1c(C)c2cnc(Nc3ccc(N4CCNCC4)cn3)nc2n(C2CCCC2)c1=O [Palbociclib] (partner 0.5 µM)
# Method in brief: (§1)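 Each reported value is a median over duplicate plates. It expresses relative viability: treated-well nuclei count divided by vehicle-well nuclei count. Lung cancer cell lines in 1536-well plates were dosed by pin tool a day after seeding, alone with one drug or with a fixed anchor-drug dose plus five library-drug doses (not always all listed) in √10 steps, and nuclei were counted after 5 days.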
# Ibrutinib + AZD7762 = compound: C=CC(=O)N1CCC[C@@H](n2nc(-c3ccc(Oc4ccccc4)cc3)c3c(N)ncnc32)C1 [Ibrutinib] + NC(=O)Nc1cc(-c2cccc(F)c2)sc1C(=O)N[C@H]1CCCNC1 [AZD7762] (partner 0.2 µM)
# Method in brief: as §1
# BMX-IN-1 + Palbociclib = compound: C=CC(=O)Nc1cc(-n2c(=O)ccc3cnc4ccc(-c5ccc(NS(C)(=O)=O)cc5)cc4c32)ccc1C [BMX-IN-1] + CC(=O)c1c(C)c2cnc(Nc3ccc(N4CCNCC4)cn3)nc2n(C2CCCC2)c1=O [Palbociclib] (partner 0.5 µM)
# Method in brief: as §1
# BMX-IN-1 + Tozasertib = compound: C=CC(=O)Nc1cc(-n2c(=O)ccc3cnc4ccc(-c5ccc(NS(C)(=O)=O)cc5)cc4c32)ccc1C [BMX-IN-1] + Cc1cc(Nc2cc(N3CCN(C)CC3)nc(Sc3ccc(NC(=O)C4CC4)cc3)n2)n[nH]1 [Tozasertib] (partner 0.1 µM)
# Method in brief: as §1
Cell Line,relative viability (Ibrutinib + Palbociclib; first compound 0.005 µM),relative viability (Ibrutinib + Palbociclib; first compound 0.01581 µM),relative viability (Ibrutinib + Palbociclib; first compound 0.05 µM),relative viability (Ibrutinib + Palbociclib; first compound 0.1581 µM),relative viability (Ibrutinib + Palbociclib; first compound 0.5 µM),relative viability (Ibrutinib + AZD7762; first compound 0.005 µM),relative viability (Ibrutinib + AZD7762; first compound 0.01581 µM),relative viability (Ibrutinib + AZD7762; first compound 0.05 µM),relative viability (Ibrutinib + AZD7762; first compound 0.1581 µM),relative viability (Ibrutinib + AZD7762; first compound 0.5 µM),relative viability (BMX-IN-1 + Palbociclib; first compound 0.02 µM),relative viability (BMX-IN-1 + Palbociclib; first compound 0.2 µM),relative viability (BMX-IN-1 + Palbociclib; first compound 0.6325 µM),relative viability (BMX-IN-1 + Palbociclib; first compound 2 µM),relative viability (BMX-IN-1 + Tozasertib; first compound 0.02 µM),relative viability (BMX-IN-1 + Tozasertib; first compound 0.2 µM),relative viability (BMX-IN-1 + Tozasertib; first compound 0.6325 µM),relative viability (BMX-IN-1 + Tozasertib; first compound 2 µM)
LC-2-ad,0.588,0.513,0.505,0.542,0.505,0.905,0.801,0.861,0.786,0.599,0.498,0.574,0.543,0.509,0.408,0.501,0.394,0.214
NCI-H727,0.593,0.593,0.644,0.644,0.505,0.404,0.664,0.524,0.416,0.555,0.611,0.672,0.625,0.592,0.691,0.646,0.572,0.597
NCI-H522,0.865,1.05,0.861,1.01,0.664,0.847,0.698,0.683,0.766,0.751,0.841,1.14,1.02,0.86,0.573,0.666,0.605,0.532
NCI-H3122,0.188,0.178,0.184,0.176,0.196,1.16,0.946,1.03,0.885,0.992,0.193,0.204,0.174,0.164,0.516,0.399,0.461,0.117
NCI-H322M,0.472,0.463,0.479,0.469,0.399,0.432,0.527,0.514,0.486,0.502,0.531,0.484,0.478,0.445,0.514,0.548,0.475,0.401
HCC-44,0.982,0.977,1.03,0.979,0.92,1.11,,,,1.07,1.02,0.96,0.996,0.979,1.27,0.92,0.861,0.725
NCI-H441,0.2,0.199,0.216,0.138,0.157,1.18,1.15,1.22,1.28,0.952,0.199,0.205,0.234,0.21,0.58,0.873,0.761,0.846
NCI-H2347,0.391,0.386,0.478,0.492,0.428,0.739,0.733,0.69,0.665,0.696,0.443,0.406,0.458,0.393,0.518,0.471,0.585,0.537
HCC-827,0.471,0.438,0.453,0.475,0.17,0.157,0.193,0.323,0.167,0.12,0.486,0.409,0.503,0.467,0.524,0.434,0.415,0.442
LOU-NH91,0.563,0.499,0.567,0.56,0.513,0.684,0.701,0.717,0.801,0.754,,0.541,0.488,0.546,0.829,,0.715,0.656
NCI-H1651,0.529,0.5,0.533,0.489,0.51,0.306,0.459,0.452,0.464,0.48,0.598,0.559,0.511,0.533,0.848,1,0.735,0.731
PC-3 [JPC-3],0.585,0.527,0.515,0.54,0.486,0.631,0.588,0.478,,0.445,0.544,0.598,0.546,0.521,1.02,1.02,1.08,0.951
NCI-H838,0.178,0.209,0.202,0.202,0.234,0.739,0.876,0.985,0.946,0.943,0.241,0.198,0.222,0.24,0.322,0.318,0.279,0.313
NCI-H1648,0.279,0.27,0.259,0.297,0.252,0.697,0.66,0.673,0.762,0.865,0.251,0.256,0.286,0.31,0.447,0.47,0.426,0.459
NCI-H358,0.121,0.169,,0.189,0.11,0.404,0.349,0.282,0.515,0.29,0.129,0.138,0.147,0.122,0.112,0.108,0.104,0.11
NCI-H647,0.334,0.385,0.305,0.374,0.538,0.413,0.534,0.529,0.3,0.497,0.436,0.384,0.377,0.416,0.283,0.0553,0.394,0.232
HCC-366,0.439,0.405,0.38,0.385,0.428,0.329,0.233,0.247,0.347,0.303,0.535,0.385,0.454,0.485,0.0929,0.0929,0.112,0.1
